Values after ≈ are worked out from the molar mass of the structure shown. Read-outs that look alike come from different tables or passages of the source.

Series [1] relates to Candida albicans ATCC 10231. Description: Antibacterial activity (MIC), agar dilution method. It counts as cell-based. On the procedure:
(§1) The antibacterial activity was determined by the agar dilution method using a medium (pH 7) which comprises 3 g/l Bacto-tryptone (Difco Laboratories),3 g/l meat extract, 1 g/f yeast extract, 1 g/l glucose and 16 g/l agar.

The subject of series [2] is Enterococcus faecium ATCC 10541. Description: Antibacterial activity (MIC), agar dilution method. It is filed as cell-based. On the procedure: as §1
In general terms: In agar dilution the substance is mixed into plates at graded concentrations.

Series [3] deals with Staphylococcus aureus ATCC 6538P. Description: Antibacterial activity (MIC), agar dilution method. It counts as cell-based. As to conditions: ATCC6538P, pH 7. How it is done: as §1
Series [4] has as its system HR-3Y1 cells. Description: Growth inhibition against HR-3Y1 cells. It counts as cell-based. As to conditions: 72 hours, 37° C., Giemsa staining. On the procedure: An HR-3Y1 cell suspension (3.0×10^4 cells/ml) prepared by suspending HR-3Y1 cells in a medium comprising MEM medium (Nissui Pharmaceutical Co., Ltd.) and 10% fetal calf serum (hereinafter referred to as Medium A) was put into wells of a 96-well microtiter plate in an amount of 0.1 ml per well. After the cells in the plate were cultivated at 37° C. for 20 hours in a CO2 -incubator, a test compound appropriately diluted with Medium A was added to the wells in an amount of 0.1 ml per well. The cells were further cultivated at 37° C. for 72 hours in the CO2 -incubator. After the cultivation supernatant was removed, the residue was washed once with physiological saline and then treated with 0.1 ml of methanol for 10 minutes to fix the cells. The cells were stained with 0.1 ml of Giemsa's staining solution [Giemsa's staining solution, Merck Art 9204 (Merck & Co., Inc.): physiological saline=1:10] for 5 minutes. After the staining solution was removed, the residue was washed once with 0.2 ml of water. Then, the dye was extracted with 0.2 ml of 0.1 N hydrochloric acid and the absorbance was measured at 620 nm with a microplate reader.
The concentration of the test compound at which the growth of the cells is inhibited by 50% (IC50) was calculated by comparing the absorbance of untreated cells with those of the cells treated with the test compound at known concentrations.

Series [5] can be described thus: Solubility. It counts as physicochemical.
Series [6] relates to BALB 3T3/H-ras cells. Description: Growth inhibition against BALB 3T3/H-ras cells. It counts as cell-based. As to conditions: Mus musculus, 72 hours, 37° C., Giemsa staining. On the procedure: A BALB 3T3/H-ras cell suspension (3.0×10^4 cells/ml) prepared by suspending BALB 3T3/H-ras cells ([…]) in a medium comprising MEM medium (Nissui Pharmaceutical Co., Ltd.) and 10% fetal calf serum (hereinafter referred to as Medium A) was put into wells of a 96-well microtiter plate in an amount of 0.1 ml per well. After the cells in the plate were cultivated at 37° C. for 20 hours in a CO2 -incubator, a test compound appropriately diluted with Medium A was added to the wells in an amount of 0.1 ml per well. The cells were further cultivated at 37° C. for 72 hours in the CO2 -incubator. After the cultivation supernatant was removed, the residue was washed once with physiological saline and then treated with 0.1 ml of methanol for 10 minutes to fix the cells. The cells were stained with 0.1 ml of Giemsa's staining solution [Giemsa's staining solution, Merck Art 9204 (Merck & Co., Inc.): physiological saline=1:10] for 5 minutes. After the staining solution was removed, the residue was washed once with 0.2 ml of water. Then, the dye was extracted with 0.2 ml of 0.1 N hydrochloric acid and the absorbance was measured at 620 nm with a microplate reader. […]

Series [7] deals with isogenic tumor in K-BALB mice. Description: Antitumor activity against isogenic tumor system in K-BALB mice. As to conditions: 10.0 mg/kg, intraperitoneal, 5 consecutive days from 7th day after s.c. transplantation, BALB/c mouse. It counts as in vivo. How it is done:
The antitumor activity against an isogenic tumor system in K-BALB mice was measured according to the method described in Proc. Natl. Acad. Sci., 90, 2281 (1993). That is, an isogenic tumor in K-BALB mice was resected from a donor mouse, and a 2×2×2 mm (8 mm^3) tumor piece was subcutaneously transplanted into a BALB/c mouse at the ventral side using a trocar. After the graft survival was confirmed on the 7th day after the transplantation, a test compound was intraperitoneally administered for 5 consecutive days from the same day. The longer diameter and the shorter diameter of the tumor were measured with slide calipers, and the tumor volume was calculated according to the formula: (longer diameter)×(shorter diameter)^2 /2 [Cancer Chemother. Rep., Part III, 3, 1 (1972)]. The antitumor effect was evaluated in terms of T/C, the ratio of the tumor volume of a test compound-treated group (T) to that of an untreated group (C).

The mark [8] stands for this setting: ATCC10231, Candida albicans ATCC 10231, agar dilution, pH 7, read-out: MIC.
Setting [9] is: ATCC10541, Enterococcus faecium ATCC 10541, agar dilution, pH 7, read-out: MIC.
The mark [10] stands for this setting: Staphylococcus aureus ATCC 6538P, agar dilution, read-out: MIC.

`CO[C@H]1/C=C/C=C/C=C/C[C@H](OC(=O)C2(NC(=O)C3CCCCC3)CC2)[C@H](C)[C@@H](O)/C(C)=C\CCC2=CC(=O)C=C(NC(=O)C1)C2=O` [UCF116-A3]: the MIC is 41.7 µg/mL (≈ 64.3 µM) in series [1] (setting [8]), 83.3 µg/mL (≈ 128 µM) in series [2] (setting [9]) and 41.7 µg/mL (≈ 64.3 µM) in series [3] (setting [10]). In series [4], this compound showed a 50% inhibitory concentration (IC50) of 0.95 µM. The “Solubility in DMSO, chloroform, acetone and ethyl acetate” value (“Solubility in DMSO, chloroform” below) in series [5] is “Soluble”. The “Solubility in water and hexane” value in series [5] is reported as “insoluble”.

Turning to `CO[C@H]1/C=C/C=C/C=C/C[C@H](OC(=O)[C@@H](C)NC(=O)C2=CCCCC2)[C@H](C)[C@@H](O)/C(C)=C\CCc2cc(O)cc(c2O)NC(=O)C1` [UCF116-B], the MIC in series [1] (setting [8]) is 20.8 µg/mL (≈ 32.7 µM); in series [2] (setting [9]), 41.7 µg/mL (≈ 65.5 µM); in series [3] (setting [10]) it was 41.7 µg/mL (≈ 65.5 µM). Also, the figures for the IC50 in series [6] and in series [4] were 0.39 µM and 0.35 µM, respectively. Moreover, the “T/C (ratio of tumor volume of treated group to untreated group)” value in series [7] is 0.25. For the same compound, the “Solubility in DMSO, chloroform” value in series [5] is “Soluble”. Further, the “Solubility in water and hexane” value in series [5] is “insoluble”.

Take `C/C=C(\C)C(=O)N[C@H](C)C(=O)O[C@H]1C/C=C/C=C/C=C/[C@H](OC)CC(=O)Nc2cc(O)cc(c2O)CC/C=C(/C)[C@H](O)[C@H]1C` [UCF116-D]: the MIC came out at 83.3 µg/mL (≈ 136 µM) in series [1] (Candida albicans, ATCC10231, pH 7); 83.3 µg/mL (≈ 136 µM) in series [2] (Enterococcus faecium, ATCC10541, pH 7); 83.3 µg/mL (≈ 136 µM) in series [3] (Staphylococcus aureus). Moreover, 0.66 µM corresponded to half-maximal inhibition in series [6] (IC50). The “Solubility in DMSO, chloroform” value in series [5] was “Soluble”. The “Solubility in water and hexane” value in series [5] was “insoluble”.

For orientation: MIC means the lowest concentration found to suppress growth. Usually IC50 stands for the midpoint of a concentration-inhibition curve.

For the origin of these results see patent US5686606A, “UCF116 compounds” (Kyowa Hakko Kogyo, Co., Ltd., priority 1994, dated 1997).
